In EPA's ToxValDB 9.5 (doi:10.2903/j.efsa.2018.5429):
Converted amounts (≈) assume the structure as drawn.

Key:
[1] = test system: Anas platyrhynchos; settings: reproductive
[2] = test system: Apis mellifera; settings: acute, duration: 48 hours, mortality
[3] = test system: Canidae; settings: subchronic; duration: 90 days; oral; Dog Other; clinical signs
[4] = test system: Coturnix japonica; settings: acute; oral; mortality
[5] = test system: Daphnia magna; settings: chronic/long-term; duration: 21 days; reproduction
[6] = test system: Hypoaspis aculeifer; settings: acute; duration: 14 days
[7] = test system: Lepomis macrochirus; settings: acute; duration: 96 hours; mortality
[8] = test system: Oncorhynchus mykiss; settings: chronic/long-term; duration: 56 days; behavior
[9] = test system: Rattus norvegicus; settings: for NOAEL: reproduction developmental
[10] = test system: Tagia sp.; settings: chronic/long-term; duration: 56 days; body weight
[11] = test system: Aphidius rhopalosiphi; assay: LR50; higher = less toxic; settings: not reported; mortality

Work on CNC(=O)Oc1cc(C)c(SC)c(C)c1 [Methiocarb] yielded an NOAEL [1] of 4.51 mg/kg-day, an LD50 ([2]; dermal) of 0.23 µg/piece and an LD50 ([2]; oral, unspecified) of 0.08 µg/piece. It also gave an NOAEL [3] of 0.25 mg/kg-day, an LD50 [4] of 5 mg/kg-day and an NOEC [5] of 0.0001 mg/L. It also gave an NOEC [6] of 10.1 mg/kg, an LC50 [7] of 0.65 mg/L (≈ 2.88 µM) and an NOEC [8] of 0.05 mg/L. The LD50 ([9]; acute, oral, mortality) was < 50 mg/kg-day, the NOAEL ([9]; body weight) was 4.3 mg/kg-day and the NOAEL ([9]; clinical signs) was 0.5 mg/kg-day. For the same compound, the NOEC [10] was 0.08 mg/kg and the LR50 [11] was 8.5 g/ha.
